From patent US10617682B2 (ROSEMAN UNIVERSITY OF HEALTH SCIENCES, priority 2017, dated 2020)

Experiments:
[1] = HPLC potency of freshly prepared solution against USP standard prochlorperazine maleate; format: physicochemical
Experimental: The mobile phase consisted of the ion-pairing solution, acetonitrile, and methanol (50:40:10). The ion pairing solution was previously prepared by dissolving 4.33 g of sodium-1-octanesulfonic acid and 4.0 mL glacial acetic acid in 1000 mL of water. The chromatographic separation was achieved using a 3.9 mm×15 cm L1 (C18) column with 5 μm particle size. The flow-rate was 1.5 mL per minute and detection wavelength was 254 nm. The HPLC analysis was carried out by injecting 20 μL of sample into the Waters Alliance HPLC with Waters photodiode array (PDA) detector. Data acquisition and analysis was performed using WATERS® EMPOWER 3 software. The HPLC method was validated according to International Council on Harmonization (ICH) guidelines for various parameters including: linearity, accuracy and precision, robustness, and ruggedness.

[2] = Forced degradation studies by HPLC; format: physicochemical; settings: 0.1 mg/mL
Experimental: The specificity of the HPLC method to degradation products was also assessed by subjecting prochlorperazine to various forced degradation conditions such as hydrolysis, oxidation, photodegradation, thermal degradation and UV irradiation.
The HPLC method used in this study was able to resolve prochlorperazine sulfoxide distinctly from prochlorperazine edisylate and trifluoperazine. […] Furthermore, forced degradation studies were also performed to assess any other degradation pathways that may interfere with prochlorperazine assay.

[3] = oral route; cited from earlier work

| potency compared with USP standard prochlorperazine maleate [1] | degradation under oxidation ([2]; 0.1 M hydrogen peroxide overnight) | degradation under UV irradiation ([2]; ultraviolet radiation overnight) | Structure (SMILES) | degradation under acid hydrolysis ([2]; 0.1 M hydrochloric acid 1 hour) | degradation under base hydrolysis ([2]; 0.1 M sodium hydroxide 1 hour) | degradation under thermal degradation ([2]; 60° C. overnight) | degradation under photodegradation ([2]; laboratory light overnight) | absorption [3] |
| --- | --- | --- | --- | --- | --- | --- | --- | --- |
| 99.7±2.3% | – | – | CN1CCN(CCCN2c3ccccc3Sc3ccc(Cl)cc32)CC1 [prochlorperazine edisylate] | – | – | – | – | – |
| – | showed degradation | showed degradation | CN1CCN(CCCN2c3ccccc3Sc3ccc(Cl)cc32)CC1 [prochlorperazine, 2-chloro-10-[3-(4-methylpiperazin-1-yl)propyl]phenothiazine] | did not show prochlorperazine degradation | did not show prochlorperazine degradation | did not show prochlorperazine degradation | did not show prochlorperazine degradation | low and variable absorption |
